Data set [1] concerns the target T1, 5-hydroxytryptamine receptor 4 (Homo sapiens, UniProt Q13639). Kind of data set: Intrinsic activity at human 5HT4C receptor expressed at 100 fold physiological-level in HEK293 cells assessed as cAMP accumulation relative to 5HT. It counts as functional, cell-based.
Data set [2] has as its system Liver microsomes. Kind of data set: (§1) Half life in rat liver microsomes. Type of data set: ADME, Microsome. To be noted: microsomes. A general note: Liver microsomes are vesicles of endoplasmic reticulum, rich in cytochrome P450 enzymes.
The species entered for data set [3] is Homo sapiens. In words: Selectivity ratio of Ki for human 5HT3A receptor to Ki for human 5HT4C receptor.
The target in data set [4] is T1, 5-hydroxytryptamine receptor 4. Kind of data set: Agonist activity at human 5HT4C receptor expressed at 100 fold physiological-level in HEK293 cells assessed as cAMP accumulation. It counts as functional, cell-based. (In general: cAMP levels reflect the balance of adenylyl cyclase and phosphodiesterase activity.)
The target of data set [5] is hERG (KCNH2) (Homo sapiens, UniProt Q12809). Kind of data set: Inhibition of human ERG expressed in CHO cells at 3 uM. Conditions: CHO cells expressing human ERG. It counts as cell-based.
A short description of data set [6]: as §1. It counts as ADME, Microsome. To be noted: liver microsomes.
Data set [7] can be described thus: Permeability across human Caco2 cells. To be noted: Caco-2, read-out: Kp. Type of data set: ADME, cell-based. In general terms: Caco-2 monolayers are a common model of the intestinal barrier.
Data set [8] is described as follows: Cmax in Sprague-Dawley rat at 5 mg/kg, po. It counts as ADME, organism-based. More on the design: dose 5 mg/kg, route oral. Conditions: in vivo.
A short description of data set [9]: AUC (0 to t) in Sprague-Dawley rat at 5 mg/kg, po. It counts as ADME, organism-based. More on the design: dose 5 mg/kg, route oral. Conditions: plasma.
The nature of data set [10]: Half life in Sprague-Dawley rat at 5 mg/kg, po. To be noted: in vivo. Type of data set: ADME, organism-based. More on the design: dose 5 mg/kg, route oral.
A short description of data set [11]: Oral bioavailability in Sprague-Dawley rat at 5 mg/kg. Type of data set: ADME, organism-based. To be noted: in vivo.
Data set [12] concerns the target T2, 5-hydroxytryptamine receptor 1A (Homo sapiens) (UniProt P08908).
T2 sequence (whole entry): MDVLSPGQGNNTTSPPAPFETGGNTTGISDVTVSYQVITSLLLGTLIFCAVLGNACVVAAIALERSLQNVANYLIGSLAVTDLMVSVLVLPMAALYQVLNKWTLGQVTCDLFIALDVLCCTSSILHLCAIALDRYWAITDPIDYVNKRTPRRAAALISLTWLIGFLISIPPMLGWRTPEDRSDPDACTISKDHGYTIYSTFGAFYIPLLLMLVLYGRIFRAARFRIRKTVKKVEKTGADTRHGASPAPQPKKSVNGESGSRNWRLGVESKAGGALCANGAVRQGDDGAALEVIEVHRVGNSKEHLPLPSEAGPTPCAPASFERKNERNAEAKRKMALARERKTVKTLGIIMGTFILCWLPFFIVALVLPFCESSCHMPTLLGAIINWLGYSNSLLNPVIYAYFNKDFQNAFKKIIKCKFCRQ
Kind of data set: Inhibition of 5HT1A receptor at 10 uM.

Data set [13] deals with 5-hydroxytryptamine receptor 1B (Homo sapiens) (UniProt P28222). Kind of data set: Inhibition of 5HT1B receptor at 10 uM.
In data set [14] the target is 5-hydroxytryptamine receptor 1D (Homo sapiens) (UniProt P28221). Kind of data set: Inhibition of 5HT1D receptor at 10 uM.
Data set [15] concerns the target 5-hydroxytryptamine receptor 2A (Homo sapiens) (UniProt P28223). Kind of data set: Inhibition of 5HT2A receptor at 10 uM.
Data set [16] concerns the target 5-hydroxytryptamine receptor 2B (Homo sapiens) (UniProt P41595). In words: Inhibition of 5HT2B receptor at 10 uM.
The target in data set [17] is T3, 5-hydroxytryptamine receptor 2C (Homo sapiens) (UniProt P28335).
T3 sequence (whole entry): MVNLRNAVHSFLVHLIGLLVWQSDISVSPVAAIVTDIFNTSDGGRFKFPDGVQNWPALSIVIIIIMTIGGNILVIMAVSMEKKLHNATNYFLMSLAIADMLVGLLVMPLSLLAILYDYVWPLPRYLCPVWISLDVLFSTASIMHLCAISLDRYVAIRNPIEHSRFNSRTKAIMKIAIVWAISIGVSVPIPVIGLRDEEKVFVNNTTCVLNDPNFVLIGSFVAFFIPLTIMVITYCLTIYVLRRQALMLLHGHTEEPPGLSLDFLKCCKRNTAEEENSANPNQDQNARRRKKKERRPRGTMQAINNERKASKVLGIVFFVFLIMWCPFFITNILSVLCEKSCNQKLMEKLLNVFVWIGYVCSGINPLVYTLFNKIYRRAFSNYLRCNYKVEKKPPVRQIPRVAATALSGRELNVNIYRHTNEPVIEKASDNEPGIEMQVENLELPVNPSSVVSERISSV
Kind of data set: Inhibition of 5HT2C receptor at 10 uM.

The target in data set [18] is 5-hydroxytryptamine receptor 7 (Homo sapiens) (UniProt P34969). In words: Inhibition of 5HT7 receptor at 10 uM.
In data set [19] the target is T1, 5-hydroxytryptamine receptor 4. In words: Agonist activity at human 5HT4C receptor expressed in a cell line expressing receptor at 10 fold physiological-level assessed as cAMP accumulation. Type of data set: functional.
Data set [20] has the same target. In words: Intrinsic activity at human 5HT4C receptor expressed in a cell line expressing receptor at 10 fold physiological-level assessed as cAMP accumulation relative to 5HT. It counts as functional.
The target is the same in data set [21]. Kind of data set: 5-HT4C receptor-mediated exchange of GDP for europium labeled GTP (pEC50).
Data set [22] shares this target. Kind of data set: 5-HT4C receptor-mediated exchange of GDP for europium labeled GTP (intrinsic activity).
Data set [23] has as its target 5-hydroxytryptamine receptor 4 (Cavia porcellus, UniProt O70528). Kind of data set: Agonist activity at 5HT4 receptor in guinea pig colon assessed as longitudinal muscle plexus contraction.
The subject of data set [24] is Rattus norvegicus. In words: 5-HT4 receptor-mediated esophageal relaxation in anesthetized rat (following i.v. administration) using digital sonomicrometry. It counts as functional. To be noted: Sprague-Dawley.
Data set [25] has as its system Rattus norvegicus. In words: 5-HT4 receptor-mediated esophageal relaxation in anesthetized rat (following intraduodenal administration) using digital sonomicrometry. To be noted: Sprague-Dawley. Type of data set: functional, organism-based.
Data set [26] has as its system Cavia porcellus. Kind of data set: Agonist activity at 5HT4 receptor in sc dosed guinea pig assessed as decrease in colonic transit time of carmine red dye after 60 mins relative to vehicle treated control. It counts as functional, organism-based.
Data set [27] has as its target 5-hydroxytryptamine receptor 6 (Homo sapiens) (UniProt P50406). In words: Inhibition of 5HT6 receptor at 10 uM.
Data set [28] deals with 5-hydroxytryptamine receptor 5A (Homo sapiens) (UniProt P47898). In words: Inhibition of 5HT5A receptor at 10 uM.
Data set [29] deals with T4, 5-hydroxytryptamine receptor 3A (Homo sapiens) (UniProt P46098).
T4 sequence (whole entry): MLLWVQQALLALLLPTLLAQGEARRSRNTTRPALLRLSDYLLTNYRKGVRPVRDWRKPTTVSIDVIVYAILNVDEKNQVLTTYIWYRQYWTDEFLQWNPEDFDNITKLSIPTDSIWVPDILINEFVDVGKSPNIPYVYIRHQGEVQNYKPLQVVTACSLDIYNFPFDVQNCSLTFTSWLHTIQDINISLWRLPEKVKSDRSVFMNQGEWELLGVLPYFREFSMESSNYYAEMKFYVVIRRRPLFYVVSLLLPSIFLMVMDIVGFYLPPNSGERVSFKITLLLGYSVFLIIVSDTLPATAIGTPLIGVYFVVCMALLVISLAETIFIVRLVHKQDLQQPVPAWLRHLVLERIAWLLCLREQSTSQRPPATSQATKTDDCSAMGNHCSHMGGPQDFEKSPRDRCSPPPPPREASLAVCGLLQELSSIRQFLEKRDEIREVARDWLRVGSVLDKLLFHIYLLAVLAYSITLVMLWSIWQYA
In words: Inhibition of 5HT3A receptor at 10 uM.

The target in data set [30] is T1, 5-hydroxytryptamine receptor 4. In words: biochemical.
Description: Displacement of [3H]GR113808 from human recombinant 5HT4C receptor expressed in HEK293 cells

We go through two compounds from ChEMBL document CHEMBL2057108 (Bioorg Med Chem Lett, 2012).

The structures appear in SMILES notation. Calls of active or inactive are those of the source. The calls are words filed in the database; no cut-off is given here.

As usually defined, the EC50 is the concentration at which the effect is half-maximal. By inhibition is commonly meant how much of the control response was suppressed. Low readings indicate a weak effect, high ones a strong effect. In general, half-life refers to how long it takes for the measured level to halve. A higher half-life goes with slow loss. For orientation: Cmax means the maximum level reached in the sampled fluid or tissue. Broadly, the AUC(0-t) is exposure summed from dosing to a finite time, without extrapolation to infinity. A high value points to high exposure. One may read the bioavailability as dose-corrected exposure relative to a reference, in per cent. The ED50 is the dose that gives a 50% effect, or the effect in half of the subjects. High values mean a need for a large dose, low ones an effect at a small dose. In general, Ki refers to the equilibrium dissociation constant of an inhibitor or competing ligand from its target.

T1 sequence (Q13639 whole entry): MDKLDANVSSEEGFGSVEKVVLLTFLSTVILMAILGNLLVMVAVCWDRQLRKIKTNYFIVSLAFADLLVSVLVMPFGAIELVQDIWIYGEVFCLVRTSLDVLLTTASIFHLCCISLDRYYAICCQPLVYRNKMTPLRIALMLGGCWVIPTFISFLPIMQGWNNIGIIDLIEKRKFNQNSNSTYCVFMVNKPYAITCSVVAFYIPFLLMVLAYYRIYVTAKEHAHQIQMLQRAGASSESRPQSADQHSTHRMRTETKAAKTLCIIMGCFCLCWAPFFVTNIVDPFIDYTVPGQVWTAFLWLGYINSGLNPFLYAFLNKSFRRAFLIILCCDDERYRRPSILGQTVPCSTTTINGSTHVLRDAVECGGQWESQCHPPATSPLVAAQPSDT
Chain of 5-hydroxytryptamine receptor 1B (Homo sapiens) (P28222 whole entry): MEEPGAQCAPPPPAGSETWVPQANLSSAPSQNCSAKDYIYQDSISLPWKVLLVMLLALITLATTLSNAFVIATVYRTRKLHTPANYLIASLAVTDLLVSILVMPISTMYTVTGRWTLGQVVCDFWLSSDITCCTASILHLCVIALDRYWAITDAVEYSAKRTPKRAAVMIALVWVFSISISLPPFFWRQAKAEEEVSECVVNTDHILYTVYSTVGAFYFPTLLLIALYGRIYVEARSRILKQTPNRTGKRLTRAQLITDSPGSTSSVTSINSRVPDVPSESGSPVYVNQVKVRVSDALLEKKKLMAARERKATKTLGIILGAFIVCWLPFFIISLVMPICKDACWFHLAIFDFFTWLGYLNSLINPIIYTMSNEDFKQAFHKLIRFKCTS
Chain of 5-hydroxytryptamine receptor 1D (Homo sapiens) (P28221 whole entry): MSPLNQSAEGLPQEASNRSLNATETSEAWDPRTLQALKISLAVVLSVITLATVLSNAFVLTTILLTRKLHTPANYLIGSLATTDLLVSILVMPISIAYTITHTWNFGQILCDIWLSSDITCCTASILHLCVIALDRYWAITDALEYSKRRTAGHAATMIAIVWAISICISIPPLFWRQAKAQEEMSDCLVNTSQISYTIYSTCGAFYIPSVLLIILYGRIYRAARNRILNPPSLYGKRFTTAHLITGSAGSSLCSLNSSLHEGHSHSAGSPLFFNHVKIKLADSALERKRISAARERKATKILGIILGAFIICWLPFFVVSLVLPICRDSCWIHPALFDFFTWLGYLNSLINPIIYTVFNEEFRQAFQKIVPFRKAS
Chain of 5-hydroxytryptamine receptor 2B (Homo sapiens) (P41595 whole entry): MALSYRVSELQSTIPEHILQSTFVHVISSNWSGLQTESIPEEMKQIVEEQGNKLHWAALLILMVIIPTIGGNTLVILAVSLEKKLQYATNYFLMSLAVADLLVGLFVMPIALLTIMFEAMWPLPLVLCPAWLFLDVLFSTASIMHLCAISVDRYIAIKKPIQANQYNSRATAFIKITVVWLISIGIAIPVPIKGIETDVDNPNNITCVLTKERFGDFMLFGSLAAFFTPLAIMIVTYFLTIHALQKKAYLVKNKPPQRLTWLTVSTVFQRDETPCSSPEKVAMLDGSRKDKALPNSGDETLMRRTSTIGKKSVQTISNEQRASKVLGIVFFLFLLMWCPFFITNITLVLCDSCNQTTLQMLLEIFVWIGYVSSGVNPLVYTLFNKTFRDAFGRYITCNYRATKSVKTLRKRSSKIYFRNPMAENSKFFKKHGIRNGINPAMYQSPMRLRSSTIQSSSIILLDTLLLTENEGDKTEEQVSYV
Chain of hERG (KCNH2) (Q12809 whole entry): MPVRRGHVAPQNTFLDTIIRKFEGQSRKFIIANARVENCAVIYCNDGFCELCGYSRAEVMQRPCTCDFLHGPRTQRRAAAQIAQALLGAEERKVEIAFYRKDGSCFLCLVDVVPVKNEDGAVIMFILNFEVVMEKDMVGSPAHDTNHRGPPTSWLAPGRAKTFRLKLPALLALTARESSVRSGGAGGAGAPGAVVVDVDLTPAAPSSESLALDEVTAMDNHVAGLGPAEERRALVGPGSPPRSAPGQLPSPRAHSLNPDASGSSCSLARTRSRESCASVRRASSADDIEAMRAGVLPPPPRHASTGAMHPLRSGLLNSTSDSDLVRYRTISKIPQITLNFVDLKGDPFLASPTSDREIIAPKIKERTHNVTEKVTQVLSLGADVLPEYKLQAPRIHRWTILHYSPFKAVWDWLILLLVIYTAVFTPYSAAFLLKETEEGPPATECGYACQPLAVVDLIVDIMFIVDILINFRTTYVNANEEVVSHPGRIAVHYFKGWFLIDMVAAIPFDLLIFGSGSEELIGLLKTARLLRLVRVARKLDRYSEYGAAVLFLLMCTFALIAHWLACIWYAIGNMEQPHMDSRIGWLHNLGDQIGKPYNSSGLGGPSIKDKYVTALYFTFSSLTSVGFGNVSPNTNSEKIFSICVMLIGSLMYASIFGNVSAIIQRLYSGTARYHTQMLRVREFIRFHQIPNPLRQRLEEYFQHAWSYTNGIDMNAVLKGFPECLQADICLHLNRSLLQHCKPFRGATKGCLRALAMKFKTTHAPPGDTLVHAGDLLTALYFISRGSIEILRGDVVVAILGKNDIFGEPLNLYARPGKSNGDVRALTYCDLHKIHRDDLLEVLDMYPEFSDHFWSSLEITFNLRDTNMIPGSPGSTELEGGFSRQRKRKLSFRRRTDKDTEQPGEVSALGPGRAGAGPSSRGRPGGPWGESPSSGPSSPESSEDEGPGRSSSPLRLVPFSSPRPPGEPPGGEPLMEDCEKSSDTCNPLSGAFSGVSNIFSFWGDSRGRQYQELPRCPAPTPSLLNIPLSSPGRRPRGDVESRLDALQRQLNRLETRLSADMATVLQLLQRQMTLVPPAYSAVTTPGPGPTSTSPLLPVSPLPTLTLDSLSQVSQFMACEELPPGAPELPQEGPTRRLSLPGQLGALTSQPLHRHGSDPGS
Chain of 5-hydroxytryptamine receptor 5A (Homo sapiens) (P47898 whole entry): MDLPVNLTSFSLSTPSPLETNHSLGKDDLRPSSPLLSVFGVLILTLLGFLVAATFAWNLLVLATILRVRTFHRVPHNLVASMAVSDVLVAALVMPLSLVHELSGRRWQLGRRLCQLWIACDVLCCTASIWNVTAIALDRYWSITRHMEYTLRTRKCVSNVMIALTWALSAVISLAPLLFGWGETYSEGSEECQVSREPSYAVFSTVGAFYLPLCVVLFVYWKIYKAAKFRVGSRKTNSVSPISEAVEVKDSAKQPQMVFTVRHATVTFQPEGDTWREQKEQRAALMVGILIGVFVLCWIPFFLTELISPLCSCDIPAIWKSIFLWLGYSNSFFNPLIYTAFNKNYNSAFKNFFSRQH
Chain of 5-hydroxytryptamine receptor 7 (Homo sapiens) (P34969 whole entry): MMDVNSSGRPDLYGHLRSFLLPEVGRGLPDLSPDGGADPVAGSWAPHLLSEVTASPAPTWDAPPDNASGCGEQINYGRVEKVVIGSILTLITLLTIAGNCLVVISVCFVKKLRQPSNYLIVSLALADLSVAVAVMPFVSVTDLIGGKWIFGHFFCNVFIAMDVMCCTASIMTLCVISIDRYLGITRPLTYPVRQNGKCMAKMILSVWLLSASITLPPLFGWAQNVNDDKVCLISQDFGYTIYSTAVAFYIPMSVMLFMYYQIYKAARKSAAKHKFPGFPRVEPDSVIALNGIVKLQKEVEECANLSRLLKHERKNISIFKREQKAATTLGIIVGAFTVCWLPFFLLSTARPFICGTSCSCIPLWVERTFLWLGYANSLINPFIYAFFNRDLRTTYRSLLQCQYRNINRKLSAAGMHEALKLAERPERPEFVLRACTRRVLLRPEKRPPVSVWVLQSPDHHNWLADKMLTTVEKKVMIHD
Chain of 5-hydroxytryptamine receptor 2A (Homo sapiens) (P28223 whole entry): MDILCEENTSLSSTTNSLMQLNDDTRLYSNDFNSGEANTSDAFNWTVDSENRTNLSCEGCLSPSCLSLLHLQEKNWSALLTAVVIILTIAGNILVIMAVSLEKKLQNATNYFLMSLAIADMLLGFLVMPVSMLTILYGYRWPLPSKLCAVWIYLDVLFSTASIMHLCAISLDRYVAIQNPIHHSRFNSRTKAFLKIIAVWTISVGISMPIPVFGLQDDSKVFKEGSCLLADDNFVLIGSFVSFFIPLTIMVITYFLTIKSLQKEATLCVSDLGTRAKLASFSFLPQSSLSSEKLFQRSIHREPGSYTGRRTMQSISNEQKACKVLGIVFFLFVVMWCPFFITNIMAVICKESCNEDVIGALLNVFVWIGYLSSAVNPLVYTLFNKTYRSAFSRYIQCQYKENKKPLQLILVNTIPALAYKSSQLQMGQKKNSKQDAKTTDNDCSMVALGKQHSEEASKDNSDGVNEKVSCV
Chain of 5-hydroxytryptamine receptor 4 (Cavia porcellus, UniProt O70528) (O70528 whole entry): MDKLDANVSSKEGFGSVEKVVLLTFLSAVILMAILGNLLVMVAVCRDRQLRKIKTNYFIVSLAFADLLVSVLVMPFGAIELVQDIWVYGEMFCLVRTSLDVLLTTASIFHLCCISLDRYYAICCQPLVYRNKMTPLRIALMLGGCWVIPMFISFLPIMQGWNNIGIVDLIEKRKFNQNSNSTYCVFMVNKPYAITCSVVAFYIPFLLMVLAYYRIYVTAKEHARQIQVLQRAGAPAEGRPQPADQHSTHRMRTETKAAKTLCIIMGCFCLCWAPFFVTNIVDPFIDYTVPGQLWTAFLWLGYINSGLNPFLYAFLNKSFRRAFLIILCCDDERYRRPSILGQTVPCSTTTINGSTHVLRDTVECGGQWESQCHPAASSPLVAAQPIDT
Chain of 5-hydroxytryptamine receptor 6 (Homo sapiens) (P50406 whole entry): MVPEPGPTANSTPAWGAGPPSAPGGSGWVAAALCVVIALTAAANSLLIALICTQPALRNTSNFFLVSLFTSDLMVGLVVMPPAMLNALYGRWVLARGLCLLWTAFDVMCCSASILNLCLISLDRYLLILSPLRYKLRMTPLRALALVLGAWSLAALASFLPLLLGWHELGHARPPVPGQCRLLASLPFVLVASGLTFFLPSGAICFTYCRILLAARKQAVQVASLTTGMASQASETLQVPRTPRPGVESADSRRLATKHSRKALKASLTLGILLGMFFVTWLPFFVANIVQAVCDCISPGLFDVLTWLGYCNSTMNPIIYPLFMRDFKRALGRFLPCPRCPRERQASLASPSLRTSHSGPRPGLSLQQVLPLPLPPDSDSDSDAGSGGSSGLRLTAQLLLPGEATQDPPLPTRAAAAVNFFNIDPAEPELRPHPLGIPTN

Turning to `COc1cc(N)c(Cl)cc1C(=O)N[C@H]1CCN(CCCOc2ccc(F)cc2)C[C@H]1OC` (relative stereo) [REL-CISAPRIDE], the Intrinsic activity in data set [1] amounted to 117%. The t1/2 in data set [2] turned out to be 0.783 h.

On to `CC(=O)N1CCN(CCN2[C@@H]3CC[C@H]2C[C@@H](NC(=O)c2nn(C(C)C)c4ccccc24)C3)CC1`, for which the Ratio Ki in data set [3] is 980. Moreover, the EC50 is 2.51 nM in data set [4], 10 nM in data set [19], 6.31 nM in [21] and 10 nM in data set [23]. For the same compound, the Intrinsic activity in data set [1] was determined as 83%; in data set [20] it was 53%; in data set [22] it was 57%. In [5], 3 µM produced 9% inhibition. In addition, the half-life in [6] is greater than 1.5 h; in data set [10], 3.2 h. In addition, in [7], the Papp came out at 31 ×10⁻⁶ cm/s. The Cmax in data set [8] was determined as 254 ng/mL. For the same compound, the AUC(0-t) in data set [9] was found to be 730 ng·h/mL. Besides, in data set [11], the bioavailability is greater than 100%. Moreover, the inhibition in data set [12], in [13], in data set [14], in [15], in [16] and in data set [17] was less than 50% in each case. Besides, the inhibition in data set [18], in data set [27], in data set [28] and in data set [29] was less than 50% throughout. Also, the Activity entry in data set [24] and in data set [25] was “Dose-dependent effect” each time. Besides, in [24] (iv), the ED50 is 0.0378 mg/kg. Besides, in [26], the outcome was Active. In data set [30], this compound showed a Ki of 10 nM.
